Measurements as given in patent publication US11591363B2, “Crystalline forms of beta-sitosterol” (CENTER FOR I[…] IN CRYSTAL ENGINEERING, S.L., priority 2017, dated 2023).
Converted amounts (≈) assume the structure as drawn. Where two headings read alike, the source gives them in different places.

Key:
[1] = Particle size test by laser diffraction; type: physicochemical
Source text: This test provides the particle size of the co-crystals of the present invention in comparison with the comparaitive Standard sample of beta-Sitosterol from the Ph. Eu. Reference Standard, ref. (Y0001615)
7.1. Tested Samples • Comparative sample A: comparaitive Standard sample of beta-Sitosterol from the Ph. Eu. Reference Standard, ref. (Y0001615) • Sample A: hydrate crystal of beta-sitosterol having 1.25 molecules of water of the present invention • Sample B: cocrystal of beta-sitosterol and gallic acid Form 5 of the present invention • Sample C: cocrystal of beta-sitosterol and propionic acid Form 2 of the present invention
The particle size was performed by laser diffraction. For this purpose, a Beckman-Coulter model. LS13320 laser diffractometer (Fullerton, Calif., USA) was equipped with a Micro. Liquid Module (MLM) wet dispersion modul, an an optic model (Fraunhofer. Rdf, PIDS). The measurement range is 0.4-2000 μm.

[2] = Solubility test, shake-flask in FaSSIF-V2; type: physicochemical; conditions: for solubility at 24 h: thermodynamic from solid, read-out: Log S (logarithm of S in mol/L) (converted); for solubility, comparison between tested samples: FaSSIF-V2, pH 6.5, 25° C.
Protocol: This test is focused on evaluating the solubility in Fasted State Simulated Intestinal Fluid (FaSSIF-V2).
5.1. Samples • Comparative sample A (reference): Standard sample of beta-Sitosterol from the Ph. Eu. Reference Standard, ref. (Y0001615) • Sample A: hydrate crystal of beta-sitosterol having 1.25 molecules of water of the present invention • Sample B: cocrystal of beta-sitosterol and gallic acid Form 5 of the present invention
Solubility is determined in FaSSIF-V2 media, prepared as stated by Biorelevant.com using maleic acid buffer (pH=6.5).
All experiments are done under temperature control at 25±1° C. The weight of tested samples expressed in mg, and FaSSIF final volume expressed in mL are as defined in Table below:
Shaking time: 24 h in a rotational stirrer. After 4-5 h of shaking, pH is measured and readjusted to the initial value (6.5) in case it is needed. • Equilibration time: 24 h • Final pH measurement • Phase separation: filtration through a hydrophilic filter (PTFE membrane, 0.45 μm porous size, 4 mm diameter, Millex-LH, Millipore). Before the filtration, the filter was conditioned with sample solution for 1 h. After that time, filtration started rejecting the first drops of sample. • Solid form characterization: solid obtained after filtration is analysed by XRPD to know the exact solid form obtained after the shake-flask procedure. In case of cocrystals, XRPD analysis confirms that experiments are done under eutectic point conditions. • Liquid phase is used for API and coformer quantification.
5.3.2. HPLC Quantification • Instrument: Shimadzu HPLC, with diode array detector (SPD-M10AVPI), two pumps (LC-10ADVP), autoinjector (SIL-10ADVP) and column oven (CTO-10ASVP). • Column:
For comparative sample A and sample A quantification: Phenomenex Kinetex C18, 100×4.6 mm, 2.6 μm. For sample B quantification: Phenomenex Luna C18, 150×4.6 mm, 5 μm. • Conditions:
For comparative sample A and sample A quantification: Mobile phase composed of 80% Methanol-20% Acetonitrile. Isocratic conditions. Flow: 0.8 mL/min. Injection volume: 20 μL.
For sample B quantification: Mobile phase composed of 20 mM formic acid at pH=3 (A) and methanol (B). Gradient conditions: 0-3 min, 5% B; 8 min, 10% B; 15 min, 100% B; 17 min, 5% B; 25 min, 5% B. Flow: 1 mL/min. Injection volume: 10 μL.
Quantification wavelength: 210 nm for comparative sample A and 280 nm for sample A.
The amounts of comparative sample A, sample A and sample B in the filtered solutions coming from Shake-Flask (SF) experiments have been quantified according to the described methodology.
Solubility of the samples A and B has been calculated through the equilibrium concentrations in the eutectic point as described in “S. J. Bethune, N. Huang, A. Jayasankar, N. Rodriguez-Hornedo, Crystal Growth and Design 9, 2009, 3976-3988”, taking into account the stoichiometry of each sample.

[3] = system: circulating β-sitosterol levels; assay: Activity test: sitosterolemia (plasma beta-sitosterol, GC-FID) after oral load of lard; type: in vivo, Golden Syrian male Hamsters; conditions: for decrease in circulating levels of β-sitosterol: 5 h post-treatment (T5) with respect to T0 value, oral load of lard 2.5 g/kg BW supplemented with 0.513 g/kg BW
[4] = Bioavailability assessment: plasma beta-sitosterol after 21 days high-fat diet
[5] = system: Plasma cholesterol levels; assay: Activity test: plasma cholesterol after oral load of lard; type: in vivo, Golden Syrian male Hamsters; conditions: measured at 5 h (T5) vs T0, oral load of lard 2.5 g/kg BW supplemented with 0.513 g/kg BW
[6] = system: Plasma triglyceride levels; assay: Activity test: plasma triglycerides after oral load of lard; type: in vivo, Golden Syrian male Hamsters; conditions: for reduction of the plasmatic triglyceride concentration: T5 (5 h) vs T0
[7] = FaSSIF-V2, pH 6.5, 25±1° C., shake-flask 24 h, value (SD)

CC[C@H](CC[C@@H](C)[C@H]1CC[C@H]2[C@@H]3CC=C4C[C@@H](O)CC[C@]4(C)[C@H]3CC[C@]12C)C(C)C [Comparative sample A, beta-sitosterol]
D10 [1]: 44.62 μm | D50 [1]: 108.0 μm | D90 [1]: 178.8 μm | D(3, 2) surface weighted mean diameter [1]: 30.19 μm | Mean particle size [1]: 109.9 μm | solubility at 24 h ([2]; FaSSIF-V2, 25 °C, pH 6.5, fassif, FaSSIF-V2, pH 6.5, 25±1° C., shake-flask 24 h, value (SD)): 0.851 µM (≈ 0.353 µg/mL) | [API] concentration of beta-sitosterol in the solutions coming from SF experiments [2, 7]: 0.36 (0.06) mg/mL

CC[C@H](CC[C@@H](C)[C@H]1CC[C@H]2[C@@H]3CC=C4C[C@@H](O)CC[C@]4(C)[C@H]3CC[C@]12C)C(C)C [cocrystal Form 2, cocrystal of beta-sitosterol and propionic acid]
decrease in circulating levels of β-sitosterol ([3]; listed as test sample C): 14% | D10 ([1]; listed as Sample C): 6.671 μm | D50 ([1]; listed as Sample C): 28.01 μm | D90 ([1]; listed as Sample C): 47.60 μm | D(3, 2) surface weighted mean diameter ([1]; listed as Sample C): 13.19 μm | Mean particle size ([1]; listed as Sample C): 27.77 μm | Fold-change (FC) of increase of circulating beta-sitosterol with respect to controls (comparative group A) ([4]; 0.264 g beta-sitosterol/kg BW, control set to 1, listed as test sample C): 6.4 | FC increment of circulating beta-sitosterol in relation to reference sample B1 value ([4]; same dose 0.264 g beta-sitosterol/kg BW): 2.7 | decrease of plasmatic cholesterol levels ([5]; listed as Test sample C): 21% | plasma triglyceride concentrations at T5, comparison between groups (FIG. 15) ([6]; 5 h post-oral fat load, 0.513 g/kg BW): lower levels at T5 in comparison with both Compound A and compound B | reduction of the plasmatic triglyceride concentration ([6]; oral load of lard 2.5 g/kg BW supplemented with 0.513 g/kg BW, listed as test sample C): 20%

CC[C@H](CC[C@@H](C)[C@H]1CC[C@H]2[C@@H]3CC=C4C[C@@H](O)CC[C@]4(C)[C@H]3CC[C@]12C)C(C)C [comparative sample B, beta-sitosterol]
decrease in circulating levels of β-sitosterol [3]: 23% | percentage of variation on β-sitosterol plasma levels T5 vs T0, comparison with control (FIG. 16) ([3]; 5 h post-treatment, 0.513 g/kg BW): decrease in comparison with control (group A) | decrease of plasmatic cholesterol levels [5]: 25% | increase in triglyceridemia at 5 h (T5) ([6]; T5 vs T0, oral load of lard 2.5 g/kg BW supplemented with 0.513 g/kg BW): 39%

CC[C@H](CC[C@@H](C)[C@H]1CC[C@H]2[C@@H]3CC=C4C[C@@H](O)CC[C@]4(C)[C@H]3CC[C@]12C)C(C)C [hydrate crystal form of beta-sitosterol, beta-sitosterol]
decrease in circulating levels of β-sitosterol ([3]; listed as test sample D): 34% | D10 ([1]; listed as Sample A): 4.145 μm | D50 ([1]; listed as Sample A): 16.39 μm | D90 ([1]; listed as Sample A): 34.63 μm | D(3, 2) surface weighted mean diameter ([1]; listed as Sample A): 8.558 μm | Mean particle size ([1]; listed as Sample A): 18.12 μm | solubility at 24 h ([2]; 25 °C, FaSSIF-V2, pH 6.5, 25±1° C., calculated through the equilibrium concentrations in the eutectic point, taking into account stoichiometry): 5.01 µM | solubility, comparison between tested samples [2]: more soluble than the commercially available beta-sitosterol | [API] concentration of beta-sitosterol in the solutions coming from SF experiments ([2]; FaSSIF-V2, pH 6.5, 25±1° C., shake-flask 24 h, value (SD), listed as Sample A): 2.5 (1) mg/mL | decrease of plasmatic cholesterol levels ([5]; listed as test sample D): 29% | reduction of the plasmatic triglyceride concentration ([6]; oral load of lard 2.5 g/kg BW supplemented with 0.513 g/kg BW, listed as test sample D): 2%

CC[C@H](CC[C@@H](C)[C@H]1CC[C@H]2[C@@H]3CC=C4C[C@@H](O)CC[C@]4(C)[C@H]3CC[C@]12C)C(C)C [reference sample B1, beta-sitosterol]
Fold-change (FC) of increase of circulating beta-sitosterol with respect to controls (comparative group A) ([4]; 0.264 g beta-sitosterol/kg BW, control set to 1): 2.4

CC[C@H](CC[C@@H](C)[C@H]1CC[C@H]2[C@@H]3CC=C4C[C@@H](O)CC[C@]4(C)[C@H]3CC[C@]12C)C(C)C [reference sample B2, beta-sitosterol]
Fold-change (FC) of increase of circulating beta-sitosterol with respect to controls (comparative group A) ([4]; 0.528 g/kg BW, control set to 1): 5.3

cocrystal of beta-sitosterol and benzyl alcohol [cocrystal Form 4]
decrease in circulating levels of β-sitosterol [3]: 12% | decrease of plasmatic cholesterol levels [5]: 31% | reduction of the plasmatic triglyceride concentration ([6]; oral load of lard 2.5 g/kg BW supplemented with 0.513 g/kg BW): 7%

cocrystal of beta-sitosterol and gallic acid [cocrystal Form 5]
D10 [1]: 3.102 μm | D50 [1]: 10.24 μm | D90 [1]: 23.21 μm | D(3, 2) surface weighted mean diameter [1]: 6.009 μm | Mean particle size [1]: 12.05 μm | solubility, comparison between tested samples [2]: more soluble than the remaining tested samples | [API] concentration of beta-sitosterol in the solutions coming from SF experiments [2, 7]: 3.0 (1.5) mg/mL | Log S (logarithm of S in mol/L) ([2]; FaSSIF-V2, pH 6.5, 25±1° C., calculated through the equilibrium concentrations in the eutectic point, taking into account stoichiometry): −4.7 (0.1) mol/L | Fold-change (FC) of increase of circulating beta-sitosterol with respect to controls (comparative group A) ([4]; equivalent to 0.158 g of beta-sitosterol/kg BW, control set to 1): 4.7 | Fold-change (FC) of increase of circulating beta-sitosterol with respect to controls (comparative group A) ([4]; equivalent to 0.330 g of beta-sitosterol/kg BW, control set to 1): 7.9
